Values quoted from earlier work as cited in patent US20050244465A1, “Drug delivery systems and methods for treatment of an eye” (Allergan, Inc., priority 2004, published 2005).

Settings: efficacy in vivo; 25 mg hydrocortisone equivalent to 1 mg dexamethasone

For `C[C@]12CCC(=O)C=C1CC[C@@H]1[C@@H]2[C@@H](O)C[C@@]2(C)[C@H]1CC[C@]2(O)C(=O)CO` [hydrocortisone], the “potency relative to dexamethasone” value is given as “approximately twentyfivefold less potent than dexamethasone”.
